According to patent publication US7138361B2, “Herbicidal heterocycles” (E. I. du Pont de Nemours and Company, priority 2000, dated 2006):

Experiments:
Assay in all cases: Test C postemergence
Assay type in all cases: in vivo
[1] = tested on: crabgrass (Digitaria sanguinalis)
Procedure, shortened: (§1)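 Visual 0–100 rating vs controls (0 = no effect, 100 = complete control) at 12–14 d, greenhouse. Compounds in non-phytotoxic solvent + surfactant; pre: sprayed after seeding; post: 1–4-leaf plants, 2–18 cm.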

[2] = tested on: woolly cupgrass (Eriochloa villosa)
Procedure, shortened: as §1

[3] = tested on: pigweed (Amaranthus retroflexus)
Procedure, shortened: as §1

[4] = tested on: cocklebur (Xanthium strumarium)
Procedure, shortened: as §1

soybean (Glycine max) = tested on: soybean (Glycine max)
Procedure, shortened: as §1

kochia (Kochia scoparia) = tested on: kochia (Kochia scoparia)
Procedure, shortened: as §1

[5] = tested on: common ragweed (Ambrosia elatior)
Procedure, shortened: as §1

[6] = tested on: johnsongrass (Sorghum halepense)
Procedure, shortened: as §1

[7] = Rate 125 g/ha, scale 0 to 100, 0 no effect, 100 complete control
[8] = Rate 250 g/ha, scale 0 to 100 (0 no effect, 100 complete control)
[9] = Rate 500 g/ha, scale 0 to 100 (0 no effect, 100 complete control)

Compound | Plant response rating, Crabgrass [1, 7] | Plant response rating, Crabgrass [1, 8] | Plant response rating, Crabgrass [1, 9] | Plant response rating, Cupgrass, Woolly [2, 7] | Plant response rating, Cupgrass, Woolly [2, 8] | Plant response rating, Cupgrass, Woolly [2, 9] | Plant response rating, Pigweed [3, 7] | Plant response rating, Pigweed [3, 9] | Plant response rating, Cocklebur [4, 7] | Plant response rating, Cocklebur [4, 8] | Plant response rating, Cocklebur [4, 9] | Plant response rating, Soybean (soybean (Glycine max); [7]) | Plant response rating, Soybean (soybean (Glycine max); [8]) | Plant response rating, Kochia (kochia (Kochia scoparia); [7]) | Plant response rating, Kochia (kochia (Kochia scoparia); [8]) | Plant response rating, Ragweed, Common [5, 7] | Plant response rating, Ragweed, Common [5, 8] | Plant response rating, Johnsongrass [6, 7] | Plant response rating, Johnsongrass [6, 8] | Plant response rating, Pigweed [3, 8] | also measured
CCC(C)c1ccn(C2CCN(c3ccc(C)c(OC)c3)C2=O)n1 (centres unmarked) [Compound 80] | 0 | 0 | 30 | 0 | 0 | 0 | 40 | 70 | 30 | 30 | 40 | 60 | 70 | 0 | 30 | 0 | 50 | 0 | 0 |  | Plant response rating, Crabgrass ([1]; Rate 62 g/ha, scale 0 to 100): 0; Plant response rating, Cupgrass, Woolly ([2]; Rate 62 g/ha, scale 0 to 100): 0; Plant response rating, Pigweed ([3]; Rate 62 g/ha, scale 0 to 100): 20; Plant response rating, Cocklebur ([4]; Rate 62 g/ha, scale 0 to 100): 20; Plant response rating, Soybean (soybean (Glycine max); Rate 62 g/ha, scale 0 to 100): 50; Plant response rating, Soybean (soybean (Glycine max); [9]): 90; Plant response rating, Kochia (kochia (Kochia scoparia); Rate 62 g/ha, scale 0 to 100): 0; Plant response rating, Kochia (kochia (Kochia scoparia); [9]): 50; Plant response rating, Ragweed, Common ([5]; Rate 62 g/ha, scale 0 to 100): 0; Plant response rating, Ragweed, Common [5, 9]: 80; Plant response rating, Johnsongrass ([6]; Rate 62 g/ha, scale 0 to 100): 0; Plant response rating, Johnsongrass [6, 9]: 0
O=C1C(n2ccc(C3CCC3)n2)SCN1c1cccc(OC(F)(F)F)c1 (centres unmarked) [Compound 38] | 0 | 0 | 30 | 0 | 0 | 0 | 0 | 0 | 0 | 0 | 20 | 0 | 0 | 60 | 70 | 0 | 40 | 0 | 0 | 0 | Plant response rating, Crabgrass ([1]; Rate 62 g/ha, scale 0 to 100): 0; Plant response rating, Cupgrass, Woolly ([2]; Rate 62 g/ha, scale 0 to 100): 0; Plant response rating, Pigweed ([3]; Rate 62 g/ha, scale 0 to 100): 0; Plant response rating, Cocklebur ([4]; Rate 62 g/ha, scale 0 to 100): 0; Plant response rating, Soybean (soybean (Glycine max); Rate 62 g/ha, scale 0 to 100): 0; Plant response rating, Soybean (soybean (Glycine max); [9]): 0; Plant response rating, Kochia (kochia (Kochia scoparia); Rate 62 g/ha, scale 0 to 100): 60; Plant response rating, Kochia (kochia (Kochia scoparia); [9]): 70; Plant response rating, Ragweed, Common ([5]; Rate 62 g/ha, scale 0 to 100): 0; Plant response rating, Ragweed, Common [5, 9]: 40; Plant response rating, Johnsongrass ([6]; Rate 62 g/ha, scale 0 to 100): 0; Plant response rating, Johnsongrass [6, 9]: 30
COc1cc(N2CCC(n3ccc(C(C)C)n3)C2=O)ccc1C (centres unmarked) [Compound 85] | 30 | 40 | 70 | 30 | 60 | 70 | 70 | 100 | 70 | 90 | 90 | 60 | 70 | 60 | 80 | 20 | 20 | 40 | 40 | 90 | Plant response rating, Crabgrass ([1]; Rate 62 g/ha, scale 0 to 100): 30; Plant response rating, Cupgrass, Woolly ([2]; Rate 62 g/ha, scale 0 to 100): 30; Plant response rating, Pigweed ([3]; Rate 62 g/ha, scale 0 to 100): 60; Plant response rating, Cocklebur ([4]; Rate 62 g/ha, scale 0 to 100): 40; Plant response rating, Soybean (soybean (Glycine max); Rate 62 g/ha, scale 0 to 100): 60; Plant response rating, Soybean (soybean (Glycine max); [9]): 70; Plant response rating, Kochia (kochia (Kochia scoparia); Rate 62 g/ha, scale 0 to 100): 40; Plant response rating, Kochia (kochia (Kochia scoparia); [9]): 90; Plant response rating, Ragweed, Common ([5]; Rate 62 g/ha, scale 0 to 100): 0; Plant response rating, Ragweed, Common [5, 9]: 90; Plant response rating, Johnsongrass ([6]; Rate 62 g/ha, scale 0 to 100): 30; Plant response rating, Johnsongrass [6, 9]: 70
CC(C)(C)c1ccn(C2SCN(c3cccc(OC(F)F)c3)C2=O)n1 (centres unmarked) [Compound 36] | 0 | 30 |  | 0 | 0 |  | 60 |  | 0 | 0 |  | 0 | 0 | 70 | 80 | 0 | 30 | 0 | 0 | 60 | Plant response rating, Crabgrass ([1]; Rate 31 g/ha, scale 0 to 100): 0; Plant response rating, Cupgrass, Woolly ([2]; Rate 31 g/ha, scale 0 to 100): 0; Plant response rating, Pigweed ([3]; Rate 31 g/ha, scale 0 to 100): 30; Plant response rating, Cocklebur ([4]; Rate 31 g/ha, scale 0 to 100): 0; Plant response rating, Soybean (soybean (Glycine max); Rate 31 g/ha, scale 0 to 100): 0; Plant response rating, Kochia (kochia (Kochia scoparia); Rate 31 g/ha, scale 0 to 100): 20; Plant response rating, Ragweed, Common ([5]; Rate 31 g/ha, scale 0 to 100): 0; Plant response rating, Johnsongrass ([6]; Rate 31 g/ha, scale 0 to 100): 0
O=C1C(n2ccc(C3CCC3)n2)SCN1c1cccc(C(F)(F)F)c1 (centres unmarked) [Compound 37] | 0 | 0 |  | 0 | 0 |  | 0 |  | 0 | 0 |  | 0 | 0 | 20 | 70 | 0 | 0 | 0 | 0 | 0 | Plant response rating, Crabgrass ([1]; Rate 31 g/ha, scale 0 to 100): 0; Plant response rating, Cupgrass, Woolly ([2]; Rate 31 g/ha, scale 0 to 100): 0; Plant response rating, Pigweed ([3]; Rate 31 g/ha, scale 0 to 100): 0; Plant response rating, Cocklebur ([4]; Rate 31 g/ha, scale 0 to 100): 0; Plant response rating, Soybean (soybean (Glycine max); Rate 31 g/ha, scale 0 to 100): 0; Plant response rating, Kochia (kochia (Kochia scoparia); Rate 31 g/ha, scale 0 to 100): 0; Plant response rating, Ragweed, Common ([5]; Rate 31 g/ha, scale 0 to 100): 0; Plant response rating, Johnsongrass ([6]; Rate 31 g/ha, scale 0 to 100): 0
CCC(CC)c1ccn(C2SCN(c3cccc(C(F)(F)F)c3)C2=O)n1 (centres unmarked) [Compound 25] | 30 | 70 | 90 | 40 | 60 | 70 | 90 | 100 | 60 | 60 | 60 | 20 | 30 | 70 | 70 | 0 | 30 | 20 | 50 | 100 | Plant response rating, Soybean (soybean (Glycine max); [9]): 30; Plant response rating, Kochia (kochia (Kochia scoparia); [9]): 70; Plant response rating, Ragweed, Common [5, 9]: 40; Plant response rating, Johnsongrass [6, 9]: 90
